From PubChem BioAssay (NCI)
≈ marks a conversion by molar mass, not a printed value.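 Cells were grown in 96-well plates and exposed to each compound for 48 hours at five concentrations; endpoints were interpolated linearly between bracketing concentrations, or set to the highest concentration if not reached. Abbreviation: GI50, concentration required for 50% inhibition of growth. Definition used: TGI = concentration required for complete inhibition of growth.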

Key:
Test in all cases: DTP human tumour cell line panel, 48 h
MCF7 breast = system: MCF7 breast
SNB-19 CNS = system: SNB-19 CNS
SF-539 CNS = system: SF-539 CNS
HS 578T breast = system: HS 578T breast
MALME-3M melanoma = system: MALME-3M melanoma
MDA-MB-231 breast = system: MDA-MB-231 breast
MDA-N = system: MDA-N
U251 CNS = system: U251 CNS
SK-MEL-5 melanoma = system: SK-MEL-5 melanoma
RXF 393 renal = system: RXF 393 renal
PC-3 prostate = system: PC-3 prostate
HCT-116 colon = system: HCT-116 colon
M14 melanoma = system: M14 melanoma
SNB-75 CNS = system: SNB-75 CNS
SF-295 CNS = system: SF-295 CNS
NCI-H226 lung = system: NCI-H226 lung
HL-60(TB) leukemia = system: HL-60(TB) leukemia
CCRF-CEM leukemia = system: CCRF-CEM leukemia
SR leukemia = system: SR leukemia
DU-145 prostate = system: DU-145 prostate
SK-MEL-2 melanoma = system: SK-MEL-2 melanoma
SN12C renal = system: SN12C renal
EKVX NSCLC = system: EKVX NSCLC
SK-MEL-28 melanoma = system: SK-MEL-28 melanoma
MDA-MB-435 = system: MDA-MB-435
HCC-2998 colon = system: HCC-2998 colon
NCI-H23 lung = system: NCI-H23 lung
K-562 leukemia = system: K-562 leukemia
NCI-H460 lung = system: NCI-H460 lung
T-47D breast = system: T-47D breast
IGROV1 ovarian = system: IGROV1 ovarian
HT29 colon = system: HT29 colon
COLO 205 colon = system: COLO 205 colon
OVCAR-5 ovarian = system: OVCAR-5 ovarian
OVCAR-4 ovarian = system: OVCAR-4 ovarian
HOP-92 NSCLC = system: HOP-92 NSCLC
HCT-15 colon = system: HCT-15 colon
KM12 colon = system: KM12 colon
OVCAR-3 ovarian = system: OVCAR-3 ovarian
HOP-62 NSCLC = system: HOP-62 NSCLC
UACC-257 melanoma = system: UACC-257 melanoma
MOLT-4 leukemia = system: MOLT-4 leukemia
CAKI-1 renal = system: CAKI-1 renal
A549 NSCLC = system: A549 NSCLC
NCI-H522 lung = system: NCI-H522 lung
A498 renal = system: A498 renal
SK-OV-3 ovarian = system: SK-OV-3 ovarian
LOX IMVI melanoma = system: LOX IMVI melanoma
SF-268 CNS = system: SF-268 CNS
UACC-62 melanoma = system: UACC-62 melanoma
SW-620 colon = system: SW-620 colon
NCI/ADR-RES ovarian = system: NCI/ADR-RES ovarian
TK-10 renal = system: TK-10 renal
ACHN renal = system: ACHN renal
786-0 renal = system: 786-0 renal
OVCAR-8 ovarian = system: OVCAR-8 ovarian

`CC1(C)CC(=O)C2=C(C1)OC(N)=C(c1nc(-c3ccccc3)cs1)C2c1ccc(Br)cc1` (configuration not stated) was tested, and the GI50 (MCF7 breast) was 18.2 µg/mL (≈ 35.9 µM), the TGI (MCF7 breast) was 101 µg/mL (≈ 200 µM) and the GI50 (SNB-19 CNS) was > 150 µg/mL. The TGI (SNB-19 CNS) was > 150 µg/mL, the GI50 (SF-539 CNS) was 94.8 µg/mL (≈ 187 µM) and the TGI (SF-539 CNS) was > 150 µg/mL. For the same compound, the GI50 (HS 578T breast) was 38.5 µg/mL (≈ 75.9 µM), the TGI (HS 578T breast) was > 150 µg/mL and the GI50 (MALME-3M melanoma) was > 150 µg/mL. For the same compound, the TGI (MALME-3M melanoma) was > 150 µg/mL, the GI50 (MDA-MB-231 breast) was 59.1 µg/mL (≈ 116 µM) and the TGI (MDA-MB-231 breast) was > 150 µg/mL. For the same compound, the GI50 (MDA-N) was 74.3 µg/mL (≈ 146 µM), the TGI (MDA-N) was > 150 µg/mL and the GI50 (U251 CNS) was 71.2 µg/mL (≈ 140 µM). The TGI (U251 CNS) was > 150 µg/mL, the GI50 (SK-MEL-5 melanoma) was 38.7 µg/mL (≈ 76.2 µM) and the TGI (SK-MEL-5 melanoma) was > 150 µg/mL. For the same compound, the GI50 (RXF 393 renal) was 42.5 µg/mL (≈ 83.7 µM), the TGI (RXF 393 renal) was 126 µg/mL (≈ 248 µM) and the GI50 (PC-3 prostate) was 50.9 µg/mL (≈ 100 µM). For the same compound, the TGI (PC-3 prostate) was > 150 µg/mL, the GI50 (HCT-116 colon) was 55.7 µg/mL (≈ 110 µM) and the TGI (HCT-116 colon) was > 150 µg/mL. The GI50 (M14 melanoma) was 103 µg/mL (≈ 203 µM), the TGI (M14 melanoma) was > 150 µg/mL and the GI50 (SNB-75 CNS) was 0.547 µg/mL (≈ 1.08 µM). The TGI (SNB-75 CNS) was 46.9 µg/mL (≈ 92.5 µM), the GI50 (SF-295 CNS) was 142 µg/mL (≈ 280 µM) and the TGI (SF-295 CNS) was > 150 µg/mL. It also gave a GI50 (NCI-H226 lung) of 22.8 µg/mL (≈ 45 µM), a TGI (NCI-H226 lung) of 96.8 µg/mL (≈ 191 µM) and a GI50 (HL-60(TB) leukemia) of 69.2 µg/mL (≈ 136 µM). The TGI (HL-60(TB) leukemia) was > 150 µg/mL, the GI50 (CCRF-CEM leukemia) was 58.6 µg/mL (≈ 115 µM) and the TGI (CCRF-CEM leukemia) was > 150 µg/mL. For the same compound, the GI50 (SR leukemia) was 112 µg/mL (≈ 221 µM), the TGI (SR leukemia) was > 150 µg/mL and the GI50 (DU-145 prostate) was 70.9 µg/mL (≈ 140 µM). The TGI (DU-145 prostate) was > 150 µg/mL, the GI50 (SK-MEL-2 melanoma) was 79 µg/mL (≈ 156 µM) and the TGI (SK-MEL-2 melanoma) was > 150 µg/mL. The GI50 (SN12C renal) was 51.8 µg/mL (≈ 102 µM), the TGI (SN12C renal) was > 150 µg/mL and the GI50 (EKVX NSCLC) was 64.5 µg/mL (≈ 127 µM). The TGI (EKVX NSCLC) was > 150 µg/mL, the GI50 (SK-MEL-28 melanoma) was 93.8 µg/mL (≈ 185 µM) and the TGI (SK-MEL-28 melanoma) was > 150 µg/mL. For the same compound, the GI50 (MDA-MB-435) was 92.6 µg/mL (≈ 183 µM), the TGI (MDA-MB-435) was > 150 µg/mL and the GI50 (HCC-2998 colon) was 44.4 µg/mL (≈ 87.4 µM). For the same compound, the TGI (HCC-2998 colon) was > 150 µg/mL, the GI50 (NCI-H23 lung) was 53.7 µg/mL (≈ 106 µM) and the TGI (NCI-H23 lung) was > 150 µg/mL. The GI50 (K-562 leukemia) was 68.8 µg/mL (≈ 136 µM), the TGI (K-562 leukemia) was > 150 µg/mL and the GI50 (NCI-H460 lung) was 42.3 µg/mL (≈ 83.4 µM). For the same compound, the TGI (NCI-H460 lung) was > 150 µg/mL, the GI50 (T-47D breast) was 44.6 µg/mL (≈ 87.9 µM) and the TGI (T-47D breast) was > 150 µg/mL. The GI50 (IGROV1 ovarian) was 90.9 µg/mL (≈ 179 µM), the TGI (IGROV1 ovarian) was > 150 µg/mL and the GI50 (HT29 colon) was 67.4 µg/mL (≈ 133 µM). The TGI (HT29 colon) was > 150 µg/mL, the GI50 (COLO 205 colon) was 41.8 µg/mL (≈ 82.4 µM) and the TGI (COLO 205 colon) was > 150 µg/mL. The GI50 (OVCAR-5 ovarian) was > 150 µg/mL, the TGI (OVCAR-5 ovarian) was > 150 µg/mL and the GI50 (OVCAR-4 ovarian) was 20.9 µg/mL (≈ 41.1 µM). It also gave a TGI (OVCAR-4 ovarian) of 121 µg/mL (≈ 239 µM), a GI50 (HOP-92 NSCLC) of 33.2 µg/mL (≈ 65.5 µM) and a TGI (HOP-92 NSCLC) of 126 µg/mL (≈ 249 µM). For the same compound, the GI50 (HCT-15 colon) was 36.1 µg/mL (≈ 71.2 µM), the TGI (HCT-15 colon) was > 150 µg/mL and the GI50 (KM12 colon) was 87.6 µg/mL (≈ 173 µM). For the same compound, the TGI (KM12 colon) was > 150 µg/mL, the GI50 (OVCAR-3 ovarian) was 59.7 µg/mL (≈ 118 µM) and the TGI (OVCAR-3 ovarian) was > 150 µg/mL. For the same compound, the GI50 (HOP-62 NSCLC) was 54.4 µg/mL (≈ 107 µM), the TGI (HOP-62 NSCLC) was > 150 µg/mL and the GI50 (UACC-257 melanoma) was 97.1 µg/mL (≈ 191 µM). The TGI (UACC-257 melanoma) was > 150 µg/mL, the GI50 (MOLT-4 leukemia) was 53.5 µg/mL (≈ 105 µM) and the TGI (MOLT-4 leukemia) was > 150 µg/mL. For the same compound, the GI50 (CAKI-1 renal) was > 150 µg/mL, the TGI (CAKI-1 renal) was > 150 µg/mL and the GI50 (A549 NSCLC) was 53.1 µg/mL (≈ 105 µM). The TGI (A549 NSCLC) was > 150 µg/mL, the GI50 (NCI-H522 lung) was 42.1 µg/mL (≈ 83 µM) and the TGI (NCI-H522 lung) was > 150 µg/mL. The GI50 (A498 renal) was 66.6 µg/mL (≈ 131 µM), the TGI (A498 renal) was > 150 µg/mL and the GI50 (SK-OV-3 ovarian) was 102 µg/mL (≈ 202 µM). The TGI (SK-OV-3 ovarian) was > 150 µg/mL, the GI50 (LOX IMVI melanoma) was 124 µg/mL (≈ 245 µM) and the TGI (LOX IMVI melanoma) was > 150 µg/mL. The GI50 (SF-268 CNS) was 121 µg/mL (≈ 239 µM), the TGI (SF-268 CNS) was > 150 µg/mL and the GI50 (UACC-62 melanoma) was 30.5 µg/mL (≈ 60.2 µM). The TGI (UACC-62 melanoma) was > 150 µg/mL, the GI50 (SW-620 colon) was 86 µg/mL (≈ 170 µM) and the TGI (SW-620 colon) was > 150 µg/mL. For the same compound, the GI50 (NCI/ADR-RES ovarian) was 106 µg/mL (≈ 208 µM), the TGI (NCI/ADR-RES ovarian) was > 150 µg/mL and the GI50 (TK-10 renal) was 76.9 µg/mL (≈ 152 µM). For the same compound, the TGI (TK-10 renal) was > 150 µg/mL, the GI50 (ACHN renal) was 61.5 µg/mL (≈ 121 µM) and the TGI (ACHN renal) was > 150 µg/mL. For the same compound, the GI50 (786-0 renal) was 100 µg/mL (≈ 198 µM), the TGI (786-0 renal) was > 150 µg/mL and the GI50 (OVCAR-8 ovarian) was 116 µg/mL (≈ 229 µM). For the same compound, the TGI (OVCAR-8 ovarian) was > 150 µg/mL.
